Results reported in patent publication US10175221B2, “Detection device to identify markers dissolved in a liquid by means of a measurement of resistivity variation, detection method and use of marker and detection device” (SICPA HOLDING SA, priority 2014, dated 2019).

Test: Solubility of the tested additives into diesel fuel

Maximum evaluated concentration of marker soluble into diesel fuel (Table 1): <100 ppm
Maximum evaluated concentration of marker soluble into diesel fuel (Table 2): <100 ppm
Compound: CCCCN(CCO)CCO [N-butyldiethanolamine]
